Measurements as given in US8735406B2, “8-oxodihydropurine derivative” (Dainippon Sumitomo Pharma Co., Ltd., priority 2009, dated 2014).
Read-outs that look alike come from different tables or passages of the source.

Molecular target: T1, FAAH (Rattus norvegicus, UniProt P97612)
T1 construct: Preparation of Rat Brain Membranes Preparations (FAAH Enzyme Solution); from tissue; host or cells: rat cerebrum (brain membrane preparation)
T1 sequence (P97612 1-579): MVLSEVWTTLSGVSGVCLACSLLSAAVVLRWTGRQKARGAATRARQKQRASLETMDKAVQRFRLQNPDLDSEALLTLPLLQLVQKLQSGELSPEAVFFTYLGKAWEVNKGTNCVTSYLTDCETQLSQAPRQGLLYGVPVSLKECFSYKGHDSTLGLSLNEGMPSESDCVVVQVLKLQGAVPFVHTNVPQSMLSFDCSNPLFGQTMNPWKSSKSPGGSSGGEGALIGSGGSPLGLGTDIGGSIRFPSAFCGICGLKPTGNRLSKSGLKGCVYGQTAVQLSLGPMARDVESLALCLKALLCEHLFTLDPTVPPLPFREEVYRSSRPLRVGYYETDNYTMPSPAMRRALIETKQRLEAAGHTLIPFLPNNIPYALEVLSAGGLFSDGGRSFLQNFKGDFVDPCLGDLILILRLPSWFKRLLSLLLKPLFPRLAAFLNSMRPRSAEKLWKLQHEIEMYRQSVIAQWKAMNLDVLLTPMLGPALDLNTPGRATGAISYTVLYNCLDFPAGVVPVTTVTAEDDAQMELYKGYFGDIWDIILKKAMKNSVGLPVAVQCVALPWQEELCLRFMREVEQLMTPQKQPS
Experiment: Determination of FAAH inhibitory activity in rat (rat brain membrane preparations, [3H]-anandamide hydrolysis)
Format: biochemical
Conditions: for inhibition at 0.1 µM: read-out: FAAH Inhibition, Inhibition Rate at 100 nM; for IC50: test substance 0.1 nM to 1 μM, read-out: FAAH Inhibition IC50
Procedure, shortened: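 Rat cerebrum membranes (100 μg/mL protein) preincubated 10 min at 37 °C with compound (1% DMSO) in pH 7.6 Tris buffer with 1.5% BSA. Substrate 2 nM [3H]-anandamide plus 2 μM anandamide added for 10 min at 37 °C. [3H]-ethanolamine in the aqueous phase after chloroform/methanol extraction was scintillation counted; IC50 over 0.1 nM–1 μM.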

[1] = rat brain membrane preparations, 100 nM test substance
[2] = rat brain membrane preparations

SMILES	inhibition at 0.1 µM [1]	IC50 [2]	inhibition at 0.1 µM
Cn1c(=O)n(C(=O)N2CCN(c3cccc(F)c3)CC2)c2cnc(-c3ccccc3)nc21 [Example 124, 7-{[4-(3-Fluorophenyl)piperazin-1-yl]carbonyl}-9-methyl-2-phenyl-7,9-dihydro-8H-purine-8-one]	101%	6 nM	
Cn1c(=O)n(C(=O)N2CCN(c3ccccc3F)CC2)c2cnc(-c3ccccc3)nc21 [Example 125, 7-{[4-(2-Fluorophenyl)piperazin-1-yl]carbonyl}-9-methyl-2-phenyl-7,9-dihydro-8H-purine-8-one]	96%	30 nM	
Cn1c(=O)n(C(=O)N2CCN(c3ccc(Cl)cc3)CC2)c2cnc(-c3ccccc3)nc21 [Example 126, 7-{[4-(4-Chlorophenyl)piperazin-1-yl]carbonyl}-9-methyl-2-phenyl-7,9-dihydro-8H-purine-8-one]	99%	7 nM	
Cn1c(=O)n(C(=O)N2CCN(c3ccccc3Cl)CC2)c2cnc(-c3ccccc3)nc21 [Example 127, 7-{[4-(2-Chlorophenyl)piperazin-1-yl]carbonyl}-9-methyl-2-phenyl-7,9-dihydro-8H-purine-8-one]	94%	50 nM	
Cc1cccc(N2CCN(C(=O)n3c(=O)n(C)c4nc(-c5ccccc5)ncc43)CC2)c1 [Example 129, 9-Methyl-7-{[4-(3-methylphenyl)piperazin-1-yl]carbonyl}-2-phenyl-7,9-dihydro-8H-purine-8-one]	98%	7 nM	
Cc1ccccc1N1CCN(C(=O)n2c(=O)n(C)c3nc(-c4ccccc4)ncc32)CC1 [Example 130, 9-Methyl-7-{[4-(2-methylphenyl)piperazin-1-yl]carbonyl}-2-phenyl-7,9-dihydro-8H-purine-8-one]	94%	42 nM	
CCOc1ccc(N2CCN(C(=O)n3c(=O)n(C)c4nc(-c5ccccc5)ncc43)CC2)cc1 [Example 131, 7-{[4-(4-Ethoxyphenyl)piperazin-1-yl]carbonyl}-9-methyl-2-phenyl-7,9-dihydro-8H-purine-8-one]	99%	4 nM	
Cn1c(=O)n(C(=O)N2CCN(c3ccc(C#N)cc3)CC2)c2cnc(-c3ccccc3)nc21 [Example 132, 4-{4-[(9-Methyl-8-oxo-2-phenyl-8,9-dihydro-7H-purine-7-yl)carbonyl]piperazin-1-yl}benzonitrile]	99%	6 nM	
CC(=O)c1ccc(N2CCN(C(=O)n3c(=O)n(C)c4nc(-c5ccccc5)ncc43)CC2)cc1 [Example 133, 7-{[4-(4-Acetylphenyl)piperazin-1-yl]carbonyl}-9-methyl-2-phenyl-7,9-dihydro-8H-purine-8-one]	100%	6 nM	
Cn1c(=O)n(C(=O)N2CCN(c3ccc(C(F)(F)F)cc3)CC2)c2cnc(-c3ccccc3)nc21 [Example 134, 9-Methyl-2-phenyl-7-({4-[4-(trifluoromethyl)phenyl]piperazin-1-yl}carbonyl)-7,9-dihydro-8H-purine-8-one]	96%	7 nM	
CN(C)C(=O)n1c(=O)n(C)c2nc(-c3cccnc3)ncc21 [Example 143, N,N,9-Trimethyl-8-oxo-2-(pyridin-3-yl)-8,9-dihydro-7H-purine-7-carboxamide]	100%	15 nM	
CN(CCc1ccc(Cl)cc1)C(=O)n1c(=O)n(C)c2nc(-c3cccnc3)ncc21 [Example 145, N-[2-(4-Chlorophenyl)ethyl]-N,9-dimethyl-8-oxo-2-(pyridin-3-yl)-8,9-dihydro-7H-purine-7-carboxamide]	100%	< 1 nM	
CN(CCOc1ccc(Cl)cc1)C(=O)n1c(=O)n(C)c2nc(-c3cccnc3)ncc21 [Example 146, N-[2-(4-Chlorophenoxy)ethyl]-N,9-dimethyl-8-oxo-2-(pyridin-3-yl)-8,9-dihydro-7H-purine-7-carboxamide]	99%	< 1 nM	
Cn1c(=O)n(C(=O)N2CCC(CCc3ccc(Cl)cc3)CC2)c2cnc(-c3cccnc3)nc21 [Example 147, 7-({4-[2-(4-Chlorophenyl)ethyl]piperidin-1-yl}carbonyl)-9-methyl-2-(pyridin-3-yl)-7,9-dihydro-8H-purine-8-one]	96%	< 1 nM	
CN(C)C(=O)n1c(=O)n(C)c2nc(-c3ccncc3)ncc21 [Example 148, N,N,9-Trimethyl-8-oxo-2-(pyridin-4-yl)-8,9-dihydro-7H-purine-7-carboxamide]	97%	30 nM	
CCOc1ccc(N2CCN(C(=O)n3c(=O)n(C)c4nc(-c5ccncc5)ncc43)CC2)cc1 [Example 149, 7-{[4-(4-Ethoxyphenyl)piperazin-1-yl]carbonyl}-9-methyl-2-(pyridin-4-yl)-7,9-dihydro-8H-purine-8-one]	102%	< 1 nM	
CN(CCc1ccc(Cl)cc1)C(=O)n1c(=O)n(C)c2nc(-c3ccncc3)ncc21 [Example 150, N-[2-(4-Chlorophenyl)ethyl]-N,9-dimethyl-8-oxo-2-(pyridin-4-yl)-8,9-dihydro-7H-purine-7-carboxamide]		< 1 nM	106%
CN(CCOc1ccc(Cl)cc1)C(=O)n1c(=O)n(C)c2nc(-c3ccncc3)ncc21 [Example 151, N-[2-(4-Chlorophenoxy)ethyl]-N,9-dimethyl-8-oxo-2-(pyridin-4-yl)-8,9-dihydro-7H-purine-7-carboxamide]	102%	0.5 nM	

Now from value to compound, other results behind:

inhibition at 0.1 µM [1]	IC50 [2]	SMILES	inhibition at 0.1 µM
99%	7 nM	Cc1ccc(N2CCN(C(=O)n3c(=O)n(C)c4nc(-c5ccccc5)ncc43)CC2)cc1 [Example 128, 9-Methyl-7-{[4-(4-methylphenyl)piperazin-1-yl]carbonyl}-2-phenyl-7,9-dihydro-8H-purine-8-one]	
99%	5 nM	COc1ccc(N2CCN(C(=O)n3c(=O)n(C)c4nc(-c5ccccc5)ncc43)CC2)cc1 [Example 135, 7-{[4-(4-Methoxyphenyl)piperazin-1-yl]carbonyl}-9-methyl-2-phenyl-7,9-dihydro-8H-purine-8-one]	
99%	3 nM	COc1cccc(-c2ncc3c(n2)n(C)c(=O)n3C(=O)N2CCN(c3ccc(F)cc3)CC2)c1 [Example 136, 7-{[4-(4-Fluorophenyl)piperazin-1-yl]carbonyl}-2-(3-methoxyphenyl)-9-methyl-7,9-dihydro-8H-purine-8-one]	
98%	5 nM	COc1cccc(-c2ncc3c(n2)n(C)c(=O)n3C(=O)N2CCN(c3cccc(F)c3)CC2)c1 [Example 137, 7-{[4-(3-Fluorophenyl)piperazin-1-yl]carbonyl}-2-(3-methoxyphenyl)-9-methyl-7,9-dihydro-8H-purine-8-one]	
99%	6 nM	COc1cccc(-c2ncc3c(n2)n(C)c(=O)n3C(=O)N2CCN(c3ccc(C)cc3)CC2)c1 [Example 138, 2-(3-Methoxyphenyl)-9-methyl-7-{[4-(4-methylphenyl)piperazin-1-yl]carbonyl}-7,9-dihydro-8H-purine-8-one]	
99%	6 nM	COc1cccc(-c2ncc3c(n2)n(C)c(=O)n3C(=O)N2CCN(c3cccc(C)c3)CC2)c1 [Example 139, 2-(3-Methoxyphenyl)-9-methyl-7-{[4-(3-methylphenyl)piperazin-1-yl]carbonyl}-7,9-dihydro-8H-purine-8-one]	
99%	7 nM	COc1cccc(-c2ncc3c(n2)n(C)c(=O)n3C(=O)N2CCN(c3ccccc3)CC2)c1 [Example 140, 2-(3-Methoxyphenyl)-9-methyl-7-[(4-phenylpiperazin-1-yl)carbonyl]-7,9-dihydro-8H-purine-8-one]	
100%	4 nM	CCOc1ccc(N2CCN(C(=O)n3c(=O)n(C)c4nc(-c5cccc(OC)c5)ncc43)CC2)cc1 [Example 141, 7-{[4-(4-Ethoxyphenyl)piperazin-1-yl]carbonyl}-2-(3-methoxyphenyl)-9-methyl-7,9-dihydro-8H-purine-8-one]	
99%	5 nM	COc1cccc(-c2ncc3c(n2)n(C)c(=O)n3C(=O)N2CCN(c3ccc(Cl)cc3)CC2)c1 [Example 142, 7-{[4-(4-Chlorophenyl)piperazin-1-yl]carbonyl}-2-(3-methoxyphenyl)-9-methyl-7,9-dihydro-8H-purine-8-one]	
100%	< 1 nM	CCOc1ccc(N2CCN(C(=O)n3c(=O)n(C)c4nc(-c5cccnc5)ncc43)CC2)cc1 [Example 144, 7-{[4-(4-Ethoxyphenyl)piperazin-1-yl]carbonyl}-9-methyl-2-(pyridin-3-yl)-7,9-dihydro-8H-purine-8-one]	
